Assays:
[1] = target: T1, RNR (RNR1:RNR2 1:1) (Homo sapiens, UniProt P23921+P31350); test: RNR enzyme activity, rapid-fire mass spectrometry (RF/MS) assay; type: biochemical; conditions: RNR 50 nM, 1:1 (RNR1:RNR2); CDP 5 μM; ATP 1 mM; 37° C., 45 min; compounds screened up to 50 μM
T1 sequence (P23921 1-792): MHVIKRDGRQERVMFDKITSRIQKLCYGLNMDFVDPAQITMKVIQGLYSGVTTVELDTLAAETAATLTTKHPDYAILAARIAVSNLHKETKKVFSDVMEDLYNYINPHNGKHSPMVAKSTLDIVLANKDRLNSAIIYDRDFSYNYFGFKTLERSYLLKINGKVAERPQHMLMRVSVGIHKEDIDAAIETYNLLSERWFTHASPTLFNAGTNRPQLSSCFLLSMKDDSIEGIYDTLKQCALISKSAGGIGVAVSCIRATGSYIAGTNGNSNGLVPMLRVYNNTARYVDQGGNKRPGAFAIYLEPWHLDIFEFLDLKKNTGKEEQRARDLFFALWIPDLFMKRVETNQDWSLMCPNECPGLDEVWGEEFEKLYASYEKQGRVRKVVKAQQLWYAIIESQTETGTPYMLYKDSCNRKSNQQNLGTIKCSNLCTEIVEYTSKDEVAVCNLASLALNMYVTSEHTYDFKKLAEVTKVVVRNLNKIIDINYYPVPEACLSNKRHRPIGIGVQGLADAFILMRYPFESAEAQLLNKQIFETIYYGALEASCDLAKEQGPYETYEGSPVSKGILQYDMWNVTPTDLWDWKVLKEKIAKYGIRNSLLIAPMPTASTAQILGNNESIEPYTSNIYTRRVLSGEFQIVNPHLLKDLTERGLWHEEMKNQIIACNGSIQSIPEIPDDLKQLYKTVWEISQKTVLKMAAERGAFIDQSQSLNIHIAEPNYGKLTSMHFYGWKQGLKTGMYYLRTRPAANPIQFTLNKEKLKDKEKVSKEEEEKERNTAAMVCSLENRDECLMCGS
T1 sequence (P31350 1-389): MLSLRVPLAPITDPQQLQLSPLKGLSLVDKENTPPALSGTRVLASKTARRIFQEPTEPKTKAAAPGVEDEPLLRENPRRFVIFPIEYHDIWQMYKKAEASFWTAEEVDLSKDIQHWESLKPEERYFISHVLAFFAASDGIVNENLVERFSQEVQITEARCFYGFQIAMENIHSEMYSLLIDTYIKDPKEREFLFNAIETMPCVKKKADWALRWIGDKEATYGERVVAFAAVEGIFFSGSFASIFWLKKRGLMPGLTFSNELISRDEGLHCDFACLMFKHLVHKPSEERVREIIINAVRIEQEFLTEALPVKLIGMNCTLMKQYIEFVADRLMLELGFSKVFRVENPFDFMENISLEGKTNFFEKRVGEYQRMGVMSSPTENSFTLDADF
Experimental: A rapid-fire mass spectrometry (RF/MS) assay was used to assess RNR enzyme activity using a 384 well plate and a robotic platform.
The plate layout included two validated reference compounds (Triapine (3-AP) and Hydroxyurea (HU)): • A dose response in duplicate, top concentration: 5 μM (3-AP) and 250 μM (HU), semi-log • dilutions. • Spike wells in triplicate randomly spotted at four concentrations: • 250 μM, 100 μM, 30 μM and 2 μM for HU • 5 μM, 2 μM, 0.6 μM and 0.04 μM for 3-AP
First, the multidrop pipes were saturated for 30 minutes with enzymatic solution. Then 30 μL of Stop solution was distributed in column 24. Next, 15 μL of enzyme was distributed in column 1 to 24. Next, a pre-incubation step of 15 minutes at room temperature occurred, followed by distribution of 15 μL of substrate solution (column 1 to 24). Next, the plate was incubated for 45 minutes at 37° C. 30 μL of Stop solution was distributed to columns 1 to 23.
The final parameters for the enzyme reactions were: • Incubation: 37° C., 45 min • [CDP]: 5 μM: [ATP]: 1 mM; [NADPH]: No • [RNR]final: 50 nM with 1:1 (RNR1:RNR2) ratio • Final volume: 30 μL • Stop solution: 6% HCOOH containing 2 μM of 15

[2] = tested on: pCHK1 (S345) in Colo320 DM cells; test: Alphalisa assay, detection of pCHK1 (S345) in Colo320 DM cells; type: cell-based; conditions: Homo sapiens, COLO 320DM, compound incubation overnight (approximately 16 hours)
Experimental: Colo320 DM cells (ATCC #CCL-220, derived from human colorectal adenocarcinoma, Dukes' type C) were seeded on a 96-well, cell culture treated assay plate at a density of 50,000 cells/well in 200 μL of RPMI-1640 media supplemented with 10% Fetal Bovine Serum and incubated at 37° C. overnight. The following day, test compound dilutions were added directly to the plated cells by a Tecan digital dispenser to a final DMSO concentration of <0.5%, and incubated at 37° C. overnight (approximately 16 hours). The following day all cull culture media was removed from the cells. 75 μL of 1× AlphaLisa lysis buffer was added to each well and plates were agitated on a shaker for 30 minutes at room temperature. The lysis of cells and detection of pCHK1 (S345) were performed with regents contained within the AlphaLisa Sure Fire assay kit (Perkin Elmer #ALSU-PCHK1-A) according to the manufacturer's instructions. 10 μL of each lysate was then transferred to a white, 384-well assay plate (Perkin Elmer #6008280), 5 μL of Acceptor mix was then added to each well of lysate in the white, 384-well assay plate and incubated in the dark at room temperature for 60 minutes. 5 μL of Donor mix was then added to each well of the white, 384-well assay plate in subdued light and incubated at room temperature for 60 minutes. Plates were read on an Alpha Technology-compatible plate reader using standard AlphaLisa settings.

O=S(=O)(c1ccc2cc[nH]c2c1)N1CC2CN(c3ccc(O)cc3)CCC21 (centres unmarked) [compound 51, 4-(7-((1H-indol-6-yl)sulfonyl)-3,7-diazabicyclo[4.2.0]octan-3-yl)phenol]
IC50 [1]: 100 to 500 nM
IC50 [2]: 5000 to 10000 nM
